Measurements taken from publication PMC11245370, “3-Position Biaryl Endochin-like Quinolones with Enhanced Antimalarial Performance” (ACS Infectious Diseases, 2024).
Read-outs that look alike come from different tables or passages of the source.

Assays:
[1] = test system: P. falciparum multidrug-resistant Dd2 strain; assay: microbe, parasite or virus in culture; type: cell-based; details: Plasmodium falciparum, DD2, 72 h, read-out: P. falciparum IC50 values, Dd2
Protocol: (§1) All of this information is stored in a database with information relating to chemical structure, physical chemical properties, cross resistance patterns, mammalian cell cytotoxicity, enzyme inhibitor profiles, and synthesis details. Pharmacological data and in vivo efficacy data are also stored in the database for molecules of particular interest. […] We synthesized the compound in an initial batch size of about 800 mg as described above. […] Fluorescence readings were captured with a fluorescence plate reader and processed by nonlinear regression analysis using the GraphPad Prism software to provide IC50 values for each determination. Stock solutions were freshly prepared daily in DMSO in glass vials.
(§2) Laboratory strains of P. falciparum were cultured in human erythrocytes by standard methods. The parasites were grown in culture medium with fresh human erythrocytes maintained at 2% hematocrit at 37 °C in low-oxygen conditions (5% O2, 5% CO2, 90% N2). […] Cultures were maintained at less than 10% parasitemia by transfer of infected cells to fresh erythrocytes and culture medium every 3 or 4 days.
(§3) SYBR green I assay. In vitro antiplasmodial activity was assessed using a published SYBR Green I fluorescence-based method.[20] The drugs were added to 96-well plates using twofold serial dilutions in complete medium. […] Asynchronous P. falciparum parasites were diluted with uninfected erythrocytes and added to the wells to give a final culture volume of 100 μL at 2% hematocrit and 0.2% parasitemia. […] The parasites were then lysed by adding 100 μL of SYBR green I lysis buffer containing 0.2 μL/ml SYBR green I dye (10,000×) in 20 mM Tris (pH 7.5), 5 mM EDTA, 0.008% (wt/vol) saponin, and 0.08% (v/v) Triton X-100. The plates were incubated at room temperature for an hour in the dark. […] If the IC50 value fell outside of the initially tested range, then the range was adjusted up or down, and the assay was repeated twice.

[2] = test system: P. falciparum drug-sensitive D6 strain; assay: SYBR Green I antiplasmodial assay, D6 strain; type: cell-based; details: Plasmodium falciparum, read-out: P. falciparum IC50 values, D6
Protocol: as §1, §2, §3

[3] = test system: P. yoelii blood-stage infection; details: mice; for blood stage in vivo efficacy, 4 day Peters test results, NRD (nonrecrudescence dose): oral gavage days 1-4, followed to day 30
Protocol: (§4) On day 5, a drop of blood was taken from the tail, and a blood smear was prepared, fixed with methanol, and stained with Giemsa. The operator then examined the stained smear microscopically to determine percent parasitemia. […] In this model, animals were inoculated exactly as for the 4 day test on day 0; however, drug was administered only on day 1, whereas smears were made on day 5 and again weekly thereafter for animals that remained aparasitemic. Animals that remained aparasitemic on day 30 were scored as cures.
The P. yoelii 4 day test monitors suppression of patent infection in female CF1 mice. The test began with the inoculation (iv) of parasitized erythrocytes (3.5 × 10^4P. yoelli) (from a donor animal) on the first day of the experiment (D0). […] Initially, the 3-biaryl-ELQs were tested at doses of 0.0025, 0.005, 0.01, 0.03, 0.1, 0.3, 1.0, and 10 mg/kg/day, including a vehicle-only (PEG400) control. After completion of drug treatment, a blood sample was collected (by pricking the tail vein) for determination of parasite burden beginning on the day after the final dose (D5). Percent parasitemia was assessed by direct microscopic analysis of Giemsa-stained blood smears. […] Animals with observable parasitemia following the experiment were euthanized; animals cleared of parasites from the bloodstream were observed daily with assessment of parasitemia performed weekly until day 30, at which point the animals were scored as cured of infection. […] Nonlinear regression analysis was used for objective determination of ED50’s and ED90’s from the accumulated data as well as the nonrecrudescence dose (NRD). The 4 day test protocol was reviewed and approved by the local IACUC board at the Portland VA Medical Center. Experiments were performed with four mice per group to ensure statistical accuracy.

[4] = HepG2 cytotoxicity / mitochondrial toxicity (TiterGlo ATP, galactose medium); details: human, HepG2 cells
Protocol: HepG2 was routinely cultured in DMEM containing 10% fetal calf serum and 100 IU/mL penicillin and 100 μg/mL streptomycin (complete medium). For studies to investigate the potential for mitochondrial toxicity by selected 3-biaryl-ELQs, the medium contained galactose rather than glucose to force the cells to produce ATP through oxidative phosphorylation, which in turn makes them sensitive to mitochondrial toxicants.[36] […] After this period, the culture medium was removed, and the cells were shifted to galactose-containing medium with test drugs at concentrations ranging from 0 to 10 μM. Drug dilutions were prepared from DMSO stocks into galactose-containing medium. […] After incubation, the contents of each well were removed, and 25 μL of TiterGlo II reagent mix containing luciferase, detergent, and luciferin was added to each well along with 25 μL of culture medium. […] At this point, the plates were read on a luminometer (SpectraMax iD3 iD5Multi-Mode Microplate Reader), and the data were processed to yield the percent decrease in ATP production relative to no-drug control values. These values reflect the potential damage caused by mitochondrial toxicants due to reduced intracellular ATP levels caused by interference with the human mitochondrial electron transport chain. Assays were set up in triplicate.

[5] = ELQ-300, active metabolite of ELQ-331; comparison value, no reference given; cited from earlier work
[6] = test system: P. falciparum atovaquone-resistant clinical isolate Tm90-C2B; assay: SYBR Green I antiplasmodial assay, Tm90-C2B; type: cell-based; details: Plasmodium falciparum, read-out: P. falciparum IC50 values, Tm90-C2B
Protocol: as §1, §2, §3

[7] = molecular target: human liver cytochrome bc1 complex (Homo sapiens, UniProt P00156); set-up: method as in Nilsen et al., 2013; details: ref Nilsen et al., 2013; cited from earlier work
[8] = test system: P. yoelii blood-stage infection; assay: Single-dose cure of blood-stage murine malaria; type: in vivo, Plasmodium yoelii; details: lowest single oral dose curing all four mice, day 30
Protocol: as §4
The effectiveness of selected 3-biaryl ELQs and prodrugs was assessed vs the blood-stage infection for single-dose cures. Mice were infected iv with 3.5 × 10^4P. yoelii infected RBCs as described for the 4 day test above. Drug administration occurred on the day after inoculation (day 1). Test agents were dissolved in PEG-400 and administered ig once. On the fifth day, blood films were prepared, and % parasitemia was assessed. Animals remaining parasite-free for 30 days after drug administration were considered cured. The initial dosing range was 0.25, 0.5, 1, 3, and 10 mg/kg, including a control. Experiments were performed with four mice per group to ensure statistical accuracy. The reported parameter for these studies is the lowest single dose that provides a cure to all four animals in the group.

[9] = test system: P. falciparum drug-sensitive D6 strain; details: earlier work of the authors, no reference given; cited from earlier work
[10] = test system: P. falciparum atovaquone-resistant clinical isolate Tm90-C2B; details: earlier work of the authors, no reference given; cited from earlier work
[11] = earlier work of the authors, no reference given; cited from earlier work
[12] = test system: P. falciparum multidrug-resistant Dd2 strain; details: earlier work of the authors, no reference given; cited from earlier work
[13] = test system: P. falciparum ELQ-300-resistant D1 clone; assay: microbe, parasite or virus in culture; type: cell-based; details: Plasmodium falciparum, 72 h, read-out: P. falciparum IC50 values, D1
[14] = oral gavage days 1-4, parasitemia day 5, prodrugs dosed on molar equivalency to parent

SMILES | IC50 [1] | IC50 ([2]; D6, 72 h) | blood stage in vivo efficacy, 4 day Peters test results, NRD (nonrecrudescence dose) [3] | blood stage in vivo efficacy, 4 day Peters test results, ED50 [3, 14] | blood stage in vivo efficacy, 4 day Peters test results, ED90 [3, 14] | IC50 at 24 h [4] | elimination T1/2 [5] | IC50 ([6]; TM90, 72 h) | EC50 [7] | blood stage in vivo efficacy, single dose cure [8] | IC50 [9] | IC50 [10] | metabolic stability [11] | IC50 [12] | IC50 ([2]; D6, 72 h, SYBR Green, mean (95% confidence interval of fit)) | IC50 [13] | IC50 ([6]; TM90, 72 h, SYBR Green, mean (95% confidence interval of fit))
COc1cc2[nH]c(C)c(-c3ccc(Oc4ccc(OC(F)(F)F)cc4)cc3)c(=O)c2cc1Cl [ELQ-300] | 4.2 nM | 3.3 nM | 1.0 mg/kg/day | 0.02 mg/kg/day | 0.06 mg/kg/day | > 10 µM | 14.6 h | 2.5 nM | > 10000 nM | >25 mg/kg/day |  |  |  |  |  |  | 
COc1cc2[nH]c(C)c(-c3ccc(Oc4cccc(OC(F)(F)F)c4)cc3)c(=O)c2cc1Cl [ELQ-307] |  |  |  |  |  |  |  |  |  |  | ≤ 0.03 nM | ≤ 0.03 nM | metabolically unstable | ≤ 0.03 nM |  |  | 
O=C1C(O)=C([C@H]2CC[C@H](c3ccc(Cl)cc3)CC2)C(=O)c2ccccc21 [Atovaquone, reference compound] | 0.4 nM |  | 10 mg/kg/day | 0.1 mg/kg/day |  |  |  |  | 460 nM | 10 mg/kg/day |  |  |  |  | 0.08 nM | 0.4 nM | > 1000 nM
